Results taken from patent US9139557B2, “Carboxamide compounds and their use as calpain inhibitors” (Abbott GmbH & Co. KG, priority 2006, dated 2015).

Legend:
Format in all cases: biochemical
cathepsin B = target: T1, cathepsin B (Homo sapiens, UniProt P07858); assay: Cathepsin B enzyme inhibition in vitro (kinetic fluorescence assay); details: Ki(cathepsin B)/Ki(calpain) ratio
T1 construct: cathepsin B—isolated from human liver; purchased Calbiochem 219362; host or cells: human liver (tissue isolate)
Experimental: (§1) Testing for blockade of the corresponding enzymic activities was carried out by means of kinetic fluorescence assays (excitation 390 nm, emission 460 nm).
(§2) Apparent Ki values were calculated from the experimentally determined IC50 values by the Cheng-Prussoff relation assuming a reversible competitive enzyme inhibition. The Km values of the substrates used under the assay conditions indicated above were: 90 μM (Z-Phe-Arg-AMC, cathepsin B), 10 μM (Z-Gly-Pro-Arg-AMC, cathepsin K), 2 μM (Z-Phe-Arg-AMC, cathepsin L), and 30 μM (Z-Val-Val-Arg-AMC, cathepsin S).
(§3) The indicated Ki values are averages of the inhibition constants calculated on the basis of 2 to 4 independent dose-effect plots.
(§4) • 1. Calpain I: • 20 nM calpain-I—isolated from human erythrocytes (Calbiochem #208713), 100 μM Suc-Leu-Tyr-AMC (Bachem #1-1355) as substrate in buffer with 62 mM imidazole, 0.3 mM CaCl2, 0.10% CHAPS, 0.05% BSA, 1 mM DTT at pH 7.3 and room temperature. • 2. Cathepsin B: • 0.25 nM cathepsin B—isolated from human liver (Calbiochem #219362), 100 μM Z-Phe-Arg-AMC (Bachem #1-1160) as substrate 50 mM MES, 2 mM EDTA, 0.05% Brij 35, 2.5 mM L-cysteine, pH 6.0, room temperature. • 3. Cathepsin K: • 3 nM cathepsin K—activated from recombinant human procathepsin K from E. coli (Calbiochem #342001), 10 μM Z-Gly-Pro-Arg-AMC (Biomol #P-142) as substrate in 50 mM MES, 2 mM EDTA, 0.05% Brij 35, 2.5 mM L-cysteine, pH 6.0, room temperature. • 4. Cathepsin L: • 1 nM cathepsin L—isolated from human liver (Calbiochem #219402), 2 μM Z-Phe-Arg-AMC (Bachem #1-1160) as substrate in 50 mM MES, 2 mM EDTA, 0.05% Brij 35, 2.5 mM L-cysteine, pH 6.0, room temperature. • 5. Cathepsin S: • 0.5 nM recombinant human cathepsin S from E. coli (Calbiochem #219343), 20 μM Z-Val-Val-Arg-AMC (Bachem #1-1540) as substrate in 50 mM MES, 2 mM EDTA, 0.05% Brij 35, 2.5 mM L-cysteine, pH 6.0, room temperature.

cathepsin K = target: T2, cathepsin K (Homo sapiens, UniProt P43235); assay: Cathepsin K enzyme inhibition in vitro (kinetic fluorescence assay); details: Ki(cathepsin K)/Ki(calpain) ratio
T2 construct: purchased Calbiochem 342001; host or cells: E. coli
T2 sequence (P43235 115-329): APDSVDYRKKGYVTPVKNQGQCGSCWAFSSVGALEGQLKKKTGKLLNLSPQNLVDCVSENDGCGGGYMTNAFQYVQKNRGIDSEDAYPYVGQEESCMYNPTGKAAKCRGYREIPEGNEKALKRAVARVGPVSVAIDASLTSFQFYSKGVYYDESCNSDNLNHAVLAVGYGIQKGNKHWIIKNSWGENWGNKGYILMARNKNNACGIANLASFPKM
Experimental: as §1, §2, §3, §4

cathepsin L = target: T3, cathepsin L (Homo sapiens, UniProt P07711); assay: Cathepsin L enzyme inhibition in vitro (kinetic fluorescence assay); details: Ki(cathepsin L)/Ki(calpain) ratio
T3 construct: cathepsin L—isolated from human liver; purchased Calbiochem 219402; host or cells: human liver (tissue isolate)
Procedure, shortened: (§5)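 Kinetic fluorescence (ex 390/em 460 nm), room temperature: calpain-I (human erythrocyte, 20 nM) with 100 µM Suc-Leu-Tyr-AMC, imidazole/CaCl2 pH 7.3; cathepsin B (liver, 0.25 nM), 100 µM Z-Phe-Arg-AMC; L (liver, 1 nM), 2 µM Z-Phe-Arg-AMC; S (recombinant, 0.5 nM), 20 µM Z-Val-Val-Arg-AMC; cathepsins in MES/EDTA/cysteine pH 6.0. Apparent Ki via Cheng-Prusoff, 2–4 curves averaged.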

cathepsin S = target: T4, cathepsin S (Homo sapiens, UniProt P25774); assay: Cathepsin S enzyme inhibition in vitro (kinetic fluorescence assay); details: Ki(cathepsin S)/Ki(calpain) ratio
T4 construct: purchased Calbiochem 219343; host or cells: E. coli
Procedure, shortened: as §5

T3 sequence (P07711 114-333): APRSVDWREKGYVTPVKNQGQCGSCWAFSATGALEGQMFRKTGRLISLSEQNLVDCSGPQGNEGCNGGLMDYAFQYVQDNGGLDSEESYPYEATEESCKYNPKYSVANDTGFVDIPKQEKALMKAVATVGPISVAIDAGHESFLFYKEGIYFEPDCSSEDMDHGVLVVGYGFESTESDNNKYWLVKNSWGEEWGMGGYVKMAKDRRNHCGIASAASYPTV
T4 sequence (P25774 115-331): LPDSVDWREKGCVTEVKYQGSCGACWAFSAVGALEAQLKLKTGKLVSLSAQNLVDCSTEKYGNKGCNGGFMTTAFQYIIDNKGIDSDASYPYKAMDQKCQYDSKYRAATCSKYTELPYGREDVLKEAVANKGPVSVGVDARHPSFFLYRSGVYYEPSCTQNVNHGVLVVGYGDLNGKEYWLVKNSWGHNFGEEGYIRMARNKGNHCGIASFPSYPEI

Structure (SMILES) | Sel cat. B (cathepsin B) | Sel cat. K (cathepsin K) | Sel cat. L (cathepsin L) | Sel cat. S (cathepsin S)
NC(=O)C(=O)C(Cc1ccccc1)NC(=O)c1cccnc1-n1ccc(-c2cccc3c2OCC3)n1 (stereo not drawn) [Example 164, N-[3-Amino-2,3-dioxo-1-(phenylmethyl)propyl]-2-[3-(2,3-dihydro-1-benzofuran-7-yl)-1H-pyrazol-1-yl]pyridine-3-carboxamide] | + (+ means 10≦Ki(cathepsin B)/Ki(calpain)<30) | ++ (++ means a Ki(cathepsin K)/Ki(calpain) ratio of ≧30) | ++ (++ means a Ki(cathepsin L)/Ki(calpain) ratio of ≧50) | ++ (++ means a Ki(cathepsin S)/Ki(calpain) ratio of ≧100)
NC(=O)C(=O)C(Cc1ccccc1)NC(=O)c1cccnc1-n1ccc(-c2ccc(F)cc2)n1 (stereo not drawn) [Example 38, N-(3-Amino-1-benzyl-2,3-dioxopropyl)-2-[3-(4-fluorophenyl)-1H-pyrazol-1-yl]nicotinamide] | + (+ means 10≦Ki(cathepsin B)/Ki(calpain)<30) | + (+ means 10≦Ki(cathepsin K)/Ki(calpain)<30) | ++ (++ means a Ki(cathepsin L)/Ki(calpain) ratio of ≧50) | ++ (++ means a Ki(cathepsin S)/Ki(calpain) ratio of ≧100)
COc1ccc2c(c1)-c1nn(-c3ncccc3C(=O)NC(Cc3ccccc3)C(=O)C(N)=O)cc1CO2 (stereo not drawn) [Example 183, N-[3-Amino-2,3-dioxo-1-(phenylmethyl)propyl]-2-[8-(methyloxy)chromeno[4,3-c]pyrazol-2(4H)-yl]pyridine-3-carboxamide] | + (+ means 10≦Ki(cathepsin B)/Ki(calpain)<30) | + (+ means 10≦Ki(cathepsin K)/Ki(calpain)<30) | ++ (++ means a Ki(cathepsin L)/Ki(calpain) ratio of ≧50) | ++ (++ means a Ki(cathepsin S)/Ki(calpain) ratio of ≧100)
NC(=O)C(=O)C(Cc1ccccc1)NC(=O)c1cccnc1-n1ccc(-c2cccc(OC(F)(F)F)c2)n1 (stereo not drawn) [Example 168, N-[3-Amino-2,3-dioxo-1-(phenylmethyl)propyl]-2-(3-{3-[(trifluoromethyl)oxy]phenyl}-1H-pyrazol-1-yl)pyridine-3-carboxamide] | + (+ means 10≦Ki(cathepsin B)/Ki(calpain)<30) | + (+ means 10≦Ki(cathepsin K)/Ki(calpain)<30) | ++ (++ means a Ki(cathepsin L)/Ki(calpain) ratio of ≧50) | ++ (++ means a Ki(cathepsin S)/Ki(calpain) ratio of ≧100)
NC(=O)C(=O)C(Cc1ccccc1)NC(=O)c1cccnc1-n1ccc(-c2ccccc2F)n1 (stereo not drawn) [Example 76, N-(3-Amino-1-benzyl-2,3-dioxopropyl)-2-[3-(2-fluorophenyl)-1H-pyrazol-1-yl]nicotinamide] | ++ (++ means a Ki(cathepsin B)/Ki(calpain) ratio of ≧30) | + (+ means 10≦Ki(cathepsin K)/Ki(calpain)<30) | ++ (++ means a Ki(cathepsin L)/Ki(calpain) ratio of ≧50) | ++ (++ means a Ki(cathepsin S)/Ki(calpain) ratio of ≧100)
Cc1c(Cl)ccc2c1-c1nn(-c3ncccc3C(=O)NC(Cc3ccccc3)C(=O)C(N)=O)cc1CO2 (stereo not drawn) [Example 143, N-[3-Amino-2,3-dioxo-1-(phenylmethyl)propyl]-2-(8-chloro-9-methylchromeno[4,3-c]pyrazol-2(4H)-yl)pyridine-3-carboxamide] | ++ (++ means a Ki(cathepsin B)/Ki(calpain) ratio of ≧30) | ++ (++ means a Ki(cathepsin K)/Ki(calpain) ratio of ≧30) | ++ (++ means a Ki(cathepsin L)/Ki(calpain) ratio of ≧50) | ++ (++ means a Ki(cathepsin S)/Ki(calpain) ratio of ≧100)
NC(=O)C(=O)C(Cc1ccccc1)NC(=O)c1cccnc1-n1ccc(-c2cc(Cl)ccc2Cl)n1 (stereo not drawn) [Example 112, N-[3-Amino-2,3-dioxo-1-(phenylmethyl)propyl]-2-[3-(2,5-dichlorophenyl)-1H-pyrazol-1-yl]pyridine-3-carboxamide] | ++ (++ means a Ki(cathepsin B)/Ki(calpain) ratio of ≧30) | ++ (++ means a Ki(cathepsin K)/Ki(calpain) ratio of ≧30) | ++ (++ means a Ki(cathepsin L)/Ki(calpain) ratio of ≧50) | ++ (++ means a Ki(cathepsin S)/Ki(calpain) ratio of ≧100)
NC(=O)C(=O)C(Cc1ccc(Cl)cc1)NC(=O)c1cccnc1-n1ccc(-c2ccccc2)n1 (stereo not drawn) [Example 50, N-[3-Amino-1-(4-chlorobenzyl)-2,3-dioxopropyl]-2-(3-phenyl-1H-pyrazol-1-yl)nicotinamide] | + (+ means 10≦Ki(cathepsin B)/Ki(calpain)<30) | + (+ means 10≦Ki(cathepsin K)/Ki(calpain)<30) | + (+ means 30≦Ki(cathepsin L)/Ki(calpain)<50) | + (+ means 50≦Ki(cathepsin S)/Ki(calpain)<100)
COc1c(C)cc(C)cc1-c1ccn(-c2ncccc2C(=O)NC(Cc2ccccc2)C(=O)C(N)=O)n1 (stereo not drawn) [Example 121, N-[3-Amino-2,3-dioxo-1-(phenylmethyl)propyl]-2-{3-[3,5-dimethyl-2-(methyloxy)phenyl]-1H-pyrazol-1-yl}pyridine-3-carboxamide] | ++ (++ means a Ki(cathepsin B)/Ki(calpain) ratio of ≧30) | ++ (++ means a Ki(cathepsin K)/Ki(calpain) ratio of ≧30) | ++ (++ means a Ki(cathepsin L)/Ki(calpain) ratio of ≧50) | ++ (++ means a Ki(cathepsin S)/Ki(calpain) ratio of ≧100)
NC(=O)C(=O)C(Cc1ccccc1)NC(=O)c1cc(Cl)cnc1-n1ccc(-c2ccccc2)n1 (stereo not drawn) [Example 27, N-(3-Amino-1-benzyl-2,3-dioxopropyl)-5-chloro-2-(3-phenyl-1H-pyrazol-1-yl)nicotin-amide] | ++ (++ means a Ki(cathepsin B)/Ki(calpain) ratio of ≧30) | + (+ means 10≦Ki(cathepsin K)/Ki(calpain)<30) | + (+ means 30≦Ki(cathepsin L)/Ki(calpain)<50) | –
N#Cc1cnc(-n2ccc(-c3ccccc3)n2)c(C(=O)NC(Cc2ccccc2)C(=O)C(N)=O)c1 (stereo not drawn) [Example 82, N-(3-Amino-1-benzyl-2,3-dioxopropyl)-5-cyano-2-(3-phenyl-1H-pyrazol-1-yl)nicotinamide] | ++ (++ means a Ki(cathepsin B)/Ki(calpain) ratio of ≧30) | ++ (++ means a Ki(cathepsin K)/Ki(calpain) ratio of ≧30) | ++ (++ means a Ki(cathepsin L)/Ki(calpain) ratio of ≧50) | –
NC(=O)C(=O)C(Cc1ccccc1)NC(=O)c1cc(Cl)cnc1-n1ccc(-c2ccc(N3CCOCC3)cc2)n1 (stereo not drawn) [Example 31, N-(3-Amino-1-benzyl-2,3-dioxopropyl)-5-chloro-2-[3-(4-morpholin-4-ylphenyl)-1H-pyrazol-1-yl]nicotinamide] | ++ (++ means a Ki(cathepsin B)/Ki(calpain) ratio of ≧30) | + (+ means 10≦Ki(cathepsin K)/Ki(calpain)<30) | + (+ means 30≦Ki(cathepsin L)/Ki(calpain)<50) | –
